From the NIST ThermoML archive (doi:10.1021/je060271a)
Numbers after ± are expanded uncertainties.

Settings: 283.14 K, Liquid, Vibrating tube method

CCCCCCC(=O)OCC(COC(=O)CCCCCC)(COC(=O)CCCCCC)COC(=O)CCCCCC [pentaerythritol tetraheptanoate]
Settings | mass density [kg/m3]
19935 kPa | 997 ± 1.2
19962 kPa | 996.9 ± 1.2
19984 kPa | 996.9 ± 1.2
20007 kPa | 996.9 ± 1.2
20034 kPa | 997 ± 1.2
20057 kPa | 997 ± 1.2
20081 kPa | 997 ± 1.2
20105 kPa | 997 ± 1.2
20133 kPa | 997 ± 1.2
20156 kPa | 997 ± 1.2
20179 kPa | 997.1 ± 1.2
20202 kPa | 997 ± 1.2
20230 kPa | 997 ± 1.2
20253 kPa | 997.1 ± 1.2
20282 kPa | 997.1 ± 1.2
20305 kPa | 997 ± 1.2
20328 kPa | 997.1 ± 1.2
20356 kPa | 997.1 ± 1.2
20380 kPa | 997.1 ± 1.2
20404 kPa | 997.2 ± 1.2
20428 kPa | 997.2 ± 1.2
20456 kPa | 997.2 ± 1.2
20480 kPa | 997.2 ± 1.2
20504 kPa | 997.2 ± 1.2
20533 kPa | 997.2 ± 1.2
20557 kPa | 997.2 ± 1.2
20586 kPa | 997.3 ± 1.2
20610 kPa | 997.3 ± 1.2
20634 kPa | 997.3 ± 1.2
20663 kPa | 997.3 ± 1.2
20688 kPa | 997.3 ± 1.2
20713 kPa | 997.3 ± 1.2
20742 kPa | 997.2 ± 1.2
20768 kPa | 997.5 ± 1.2
20792 kPa | 997.5 ± 1.2
20822 kPa | 997.5 ± 1.2
20846 kPa | 997.4 ± 1.2
20871 kPa | 997.4 ± 1.2
20896 kPa | 997.4 ± 1.2
20926 kPa | 997.4 ± 1.2
20951 kPa | 997.4 ± 1.2
20976 kPa | 997.4 ± 1.2
21007 kPa | 997.6 ± 1.2
21032 kPa | 997.5 ± 1.2
21062 kPa | 997.5 ± 1.2
21088 kPa | 997.5 ± 1.2
21114 kPa | 997.6 ± 1.2
21140 kPa | 997.6 ± 1.2
21171 kPa | 997.6 ± 1.2
21196 kPa | 997.4 ± 1.2
21222 kPa | 997.6 ± 1.2
21254 kPa | 997.6 ± 1.2
21279 kPa | 997.6 ± 1.2
21310 kPa | 997.7 ± 1.2
21336 kPa | 997.5 ± 1.2
21362 kPa | 997.7 ± 1.2
21393 kPa | 997.6 ± 1.2
21419 kPa | 997.7 ± 1.2
21446 kPa | 997.7 ± 1.2
21473 kPa | 997.7 ± 1.2
21505 kPa | 997.7 ± 1.2
21531 kPa | 997.7 ± 1.2
21558 kPa | 997.6 ± 1.2
21585 kPa | 997.8 ± 1.2
21617 kPa | 997.6 ± 1.2
21644 kPa | 997.8 ± 1.2
21671 kPa | 997.9 ± 1.2
21703 kPa | 997.8 ± 1.2
21730 kPa | 997.9 ± 1.2
21758 kPa | 997.8 ± 1.2
21790 kPa | 997.9 ± 1.2
21818 kPa | 997.9 ± 1.2
21846 kPa | 997.9 ± 1.2
21873 kPa | 997.7 ± 1.2
21906 kPa | 998 ± 1.2
21933 kPa | 997.9 ± 1.2
21961 kPa | 998 ± 1.2
21994 kPa | 997.9 ± 1.2
22022 kPa | 997.9 ± 1.2
22055 kPa | 998 ± 1.2
22083 kPa | 998 ± 1.2
22111 kPa | 997.9 ± 1.2
22139 kPa | 998.1 ± 1.2
22174 kPa | 998.1 ± 1.2
22199 kPa | 998 ± 1.2
22233 kPa | 998.1 ± 1.2
22261 kPa | 998.2 ± 1.2
22294 kPa | 998.1 ± 1.2
22323 kPa | 998.1 ± 1.2
22352 kPa | 998.2 ± 1.2
22381 kPa | 998.2 ± 1.2
22416 kPa | 998.2 ± 1.2
22444 kPa | 998.2 ± 1.2
22474 kPa | 998.1 ± 1.2
22509 kPa | 998.2 ± 1.2
22538 kPa | 998.2 ± 1.2
22569 kPa | 998.2 ± 1.2
22599 kPa | 998.2 ± 1.2
22628 kPa | 998.3 ± 1.2
22664 kPa | 998.4 ± 1.2
22694 kPa | 998.3 ± 1.2
22724 kPa | 998.3 ± 1.2
22760 kPa | 998.4 ± 1.2
22789 kPa | 998.4 ± 1.2
22819 kPa | 998.3 ± 1.2
22855 kPa | 998.4 ± 1.2
22886 kPa | 998.5 ± 1.2
22915 kPa | 998.4 ± 1.2
22952 kPa | 998.5 ± 1.2
22982 kPa | 998.4 ± 1.2
23012 kPa | 998.5 ± 1.2
23049 kPa | 998.6 ± 1.2
23079 kPa | 998.5 ± 1.2
23110 kPa | 998.5 ± 1.2
23147 kPa | 998.6 ± 1.2
23178 kPa | 998.6 ± 1.2
23209 kPa | 998.6 ± 1.2
23246 kPa | 998.5 ± 1.2
23277 kPa | 998.7 ± 1.2
23308 kPa | 998.6 ± 1.2
23339 kPa | 998.7 ± 1.2
23377 kPa | 998.7 ± 1.2
23410 kPa | 998.6 ± 1.2
23442 kPa | 998.7 ± 1.2
23480 kPa | 998.8 ± 1.2
23512 kPa | 998.7 ± 1.2
23543 kPa | 998.7 ± 1.2
23576 kPa | 998.8 ± 1.2
23614 kPa | 998.8 ± 1.2
23646 kPa | 998.8 ± 1.2
23685 kPa | 998.8 ± 1.2
23717 kPa | 998.8 ± 1.2
23749 kPa | 998.9 ± 1.2
23788 kPa | 998.8 ± 1.2
23821 kPa | 998.9 ± 1.2
23854 kPa | 999 ± 1.2
23888 kPa | 998.9 ± 1.2
23927 kPa | 998.9 ± 1.2
23960 kPa | 998.9 ± 1.2
23999 kPa | 998.9 ± 1.2
24032 kPa | 998.9 ± 1.2
24066 kPa | 999.1 ± 1.2
24099 kPa | 998.9 ± 1.2
24140 kPa | 999.1 ± 1.2
24173 kPa | 999.1 ± 1.2
24213 kPa | 999 ± 1.2
24247 kPa | 999 ± 1.2
24281 kPa | 999.1 ± 1.2
24324 kPa | 999.2 ± 1.2
24358 kPa | 999.1 ± 1.2
24392 kPa | 999.2 ± 1.2
24426 kPa | 999.3 ± 1.2
24468 kPa | 999.3 ± 1.2
24502 kPa | 999.3 ± 1.2
24543 kPa | 999.3 ± 1.2
24578 kPa | 999.3 ± 1.2
24613 kPa | 999.2 ± 1.2
24655 kPa | 999.4 ± 1.2
24726 kPa | 999.4 ± 1.2
24769 kPa | 999.4 ± 1.2
24841 kPa | 999.4 ± 1.2
24878 kPa | 999.5 ± 1.2
24921 kPa | 999.5 ± 1.2
24958 kPa | 999.4 ± 1.2
24994 kPa | 999.5 ± 1.2
25038 kPa | 999.6 ± 1.2
25075 kPa | 999.6 ± 1.2
25112 kPa | 999.6 ± 1.2
25155 kPa | 999.5 ± 1.2
25192 kPa | 999.6 ± 1.2
25230 kPa | 999.6 ± 1.2
25277 kPa | 999.6 ± 1.2
25314 kPa | 999.6 ± 1.2
25352 kPa | 999.6 ± 1.2
25389 kPa | 999.7 ± 1.2
25427 kPa | 999.8 ± 1.2
25472 kPa | 999.8 ± 1.2
25511 kPa | 999.8 ± 1.2
25549 kPa | 999.8 ± 1.2
25595 kPa | 999.7 ± 1.2
25633 kPa | 999.9 ± 1.2
25672 kPa | 999.8 ± 1.2
25718 kPa | 1000 ± 1.2
25758 kPa | 1000 ± 1.2
25799 kPa | 999.9 ± 1.2
25839 kPa | 999.8 ± 1.2
25886 kPa | 999.9 ± 1.2
25918 kPa | 1000.1 ± 1.2
26265 kPa | 1000.1 ± 1.2
26414 kPa | 1000.4 ± 1.2
26496 kPa | 1000.3 ± 1.2
26525 kPa | 1000.3 ± 1.2
26556 kPa | 1000.2 ± 1.2
26581 kPa | 1000.3 ± 1.2
26612 kPa | 1000.3 ± 1.2
26638 kPa | 1000.3 ± 1.2
26665 kPa | 1000.4 ± 1.2
26696 kPa | 1000.4 ± 1.2
26722 kPa | 1000.4 ± 1.2
26776 kPa | 1000.3 ± 1.2
26950 kPa | 1000.5 ± 1.2
27004 kPa | 1000.4 ± 1.2
27030 kPa | 1000.6 ± 1.2
27063 kPa | 1000.7 ± 1.2
27090 kPa | 1000.6 ± 1.2
27291 kPa | 1000.7 ± 1.2
27380 kPa | 1000.7 ± 1.2
27414 kPa | 1000.6 ± 1.2
27442 kPa | 1000.8 ± 1.2
27476 kPa | 1000.8 ± 1.2
27506 kPa | 1000.7 ± 1.2
27536 kPa | 1000.8 ± 1.2
27566 kPa | 1000.9 ± 1.2
27704 kPa | 1000.9 ± 1.2
27724 kPa | 1000.9 ± 1.2
27744 kPa | 1000.9 ± 1.2
27768 kPa | 1000.9 ± 1.2
27787 kPa | 1001 ± 1.2
27808 kPa | 1000.9 ± 1.2
27832 kPa | 1000.9 ± 1.2
27851 kPa | 1001 ± 1.2
27872 kPa | 1001 ± 1.2
27980 kPa | 1001 ± 1.6
28001 kPa | 1001 ± 1.2
